Results on 43 compounds are retold here after patent US20190262453A1, “DESIGN AND COMPOSITION OF CELL-STABILIZED PHARMACEUTICAL FORMULATIONS” (THE REGENTS OF THE UNIVERSITY OF MICHIGAN, priority 2016, published 2019).

A word on the cell viability: it is a per cent measure of how many cells are alive, often set against a control. A higher cell viability goes with better survival. What is called Vd is a proportionality between amount in the body and measured concentration, not a real space.

Structures can show the parent of a compound that is named as a salt.

System in the first data set: not listed separately
Description: pH-dependent solubility study of CFZ-HCl (Flynn approach). It counts as physicochemical. To be noted: dissolved in pure water. How it is done:
Solubility Measurement Using the Flynn Approach. […] Mili-Q water (15 mL) was added to each vial ensuring that CFZ-HCl crystals were in great excess. Moreover, an appropriate amount of 0.1 M NaOH was added to each vial to set the initial equilibration pH measurements as follows: […] The set of sample containing vials was placed on a magnetic stirrer plate in a 25° C. water bath. […] The pH of the filtered sample was determine by Denver Instrument UltraBasic pH meter (Denver Instrument, Bohemia, N.Y.), after which the sample was subjected to HPLC analysis (Waters Alliance, Separations Module 2695) to determine the total solubility of the drug at the measured pH. […] The retention time for CFZ was determined to be at 4.75 min. […] Thus, in order to fit the experimental solubility-pH data curve of CFZ-HC, it was determined which one of the aforementioned solubility-pH relationships (equation 8 vs. equation 9) to use. […] Then, a value, say “y”, from the list of the computed [CFZH^+] values was set equal [CFZH+]S. By substituting “y' in place of [CFZH+]S, total solubility at the different pH values was calculated using the solubility-pH equation where the intrinsic salt is the primary solid species (equation 15). […]
With `CC(C)/N=c1\cc2n(-c3ccc(Cl)cc3)c3ccccc3nc-2cc1Nc1ccc(Cl)cc1` [CFZ-HCl, Clofazimine Hydrochloride], the “solubility versus unprotonated CFZ free base” value is reported as “greater solubility”.

Still in this data set, the particulars now being: from pH-solubility profile, 25° C.
Consider `CC(C)/N=c1\cc2n(-c3ccc(Cl)cc3)c3ccccc3nc-2cc1Nc1ccc(Cl)cc1` [CFZ-HCl, Clofazimine Hydrochloride], for which the pHmax is on record as 4.5±7.11×10^−15.

The test system of a further data set is RAW264.7 cells. Description: Cell viability (XTT assay). The data set is classed as cell-based.
Details: not given
The procedure:
Cell Viability. Viability of RAW264.7 cells were performed using Cell Proliferation Kit II (XTT) (Roche Applied Science, Mannheim, Germany, Cat. No. 11465015001) using the manufacturer's instructions. […] Post 24 hours exposure to CFZ, the cells were incubated with the yellow XTT solution (final concentration 0.3 mg/ml) for 4 h. […] An increase in number of living cells directly correlates to the amount of orange formazan formed, as monitored by the solution absorbance at 500 nm (Abs500). The following formula was used to determine viability of drug and inhibitor treated cells using untreated cells (blank) as a control—Cell Viability=(Abs500, treated—Abs700,treated)/(Abs500, blank—Abs700,blank).
On the technique in general: Tetrazolium dyes change colour on reduction, which living cells bring about.
`O=C(O)c1cc([N+](=O)[O-])ccc1NCCCc1ccccc1` [NPPB]: the “effect on cell viability” value was “no significant effect”.

Still in this data set, the particulars now being: BafA1 alone at 6 nM, n=6.
In the case of `CO/C1=C\C(C)=C\[C@@H](C)[C@@H](O)[C@@H](C)C/C(C)=C/C=C/[C@H](OC)[C@@H]([C@@H](C)[C@@H](O)[C@H](C)[C@@]2(O)C[C@@H](O)[C@H](C)[C@@H](C(C)C)O2)OC1=O` [BafA1, bafilomycin A1], the cell viability is reported as 65±25%.

Still in this data set, the particulars now being: BafA1 alone at 8 nM, n=6.
On to `CO/C1=C\C(C)=C\[C@@H](C)[C@@H](O)[C@@H](C)C/C(C)=C/C=C/[C@H](OC)[C@@H]([C@@H](C)[C@@H](O)[C@H](C)[C@@]2(O)C[C@@H](O)[C@H](C)[C@@H](C(C)C)O2)OC1=O` [BafA1, bafilomycin A1], for which the cell viability is on record as 33±6%.

System in a further data set: not given
Assay: not given
The following applies: in vivo; cited from earlier work.
As for `CC[C@H]1OC(=O)[C@H](C)[C@@H](O[C@H]2C[C@@](C)(OC)[C@@H](O)[C@H](C)O2)[C@H](C)[C@@H](O[C@@H]2O[C@H](C)C[C@H](N(C)C)[C@H]2O)[C@](C)(O)C[C@@H](C)CN(C)[C@H](C)[C@@H](O)[C@]1(C)O` [Azithromycin], the Vd is 31 L/kg.

With `CCC(C)n1ncn(-c2ccc(N3CCN(c4ccc(OCC5COC(Cn6cncn6)(c6ccc(Cl)cc6Cl)O5)cc4)CC3)cc2)c1=O` (stereo not drawn) [Itraconazole], the Vd is 10.7 L/kg.

As for `O=C1CN=C(c2ccccc2Cl)c2cc([N+](=O)[O-])ccc2N1` [Clonazepam], the Vd is 3.2 L/kg.

As to `CC(=O)O[C@@]12CO[C@@H]1C[C@H](O)[C@@]1(C)C(=O)[C@H](O)C3=C(C)[C@@H](OC(=O)[C@H](O)[C@@H](NC(=O)OC(C)(C)C)c4ccccc4)C[C@@](O)([C@@H](OC(=O)c4ccccc4)[C@H]21)C3(C)C` [Docetaxel], the distribution volume (Vd) was 7.27 L/kg.

Turning to `CN(C)CCOc1ccc(/C(=C(/CCCl)c2ccccc2)c2ccccc2)cc1` [Toremifene], the Vd was 48.38 L/kg.

Turning to `CO[C@H]1C[C@@H]2CC[C@@H](C)[C@@](O)(O2)C(=O)C(=O)N2CCCC[C@H]2C(=O)O[C@H]([C@H](C)C[C@@H]2CC[C@@H](O)[C@H](OC)C2)CC(=O)[C@H](C)/C=C(\C)[C@@H](O)[C@@H](OC)C(=O)[C@H](C)C[C@H](C)/C=C/C=C/C=C/1C` [Sirolimus], the volume of distribution (Vd) is 12 L/kg.

Consider `CCN(CC)CCNC(=O)c1c(C)[nH]c(/C=C2\C(=O)Nc3ccc(F)cc32)c1C` [Sunitinib], for which the Vd is 4 L/kg.

Turning to `OC(c1cc(C(F)(F)F)nc2c(C(F)(F)F)cccc12)C1CCCCN1` (stereo not drawn) [Mefloquine], the Vd is 19 L/kg.

Take `C[C@]12CC[C@@H]3c4ccc(O)cc4C[C@@H](CCCCCCCCC[S+]([O-])CCCC(F)(F)C(F)(F)F)[C@H]3[C@@H]1CC[C@@H]2O` (stereo partly drawn) [Fulvestrant]: the Vd was 4.15 L/kg.

Take `CN1CCN2c3ncccc3Cc3ccccc3C2C1` (stereo not drawn) [Mirtazapine]: the Vd is 4.5 L/kg.

`COc1ccc([C@@H]2Sc3ccccc3N(CCN(C)C)C(=O)[C@@H]2OC(C)=O)cc1` [Diltiazem]: the Vd was 3.3 L/kg.

Take `Cc1cn(-c2cc(NC(=O)c3ccc(C)c(Nc4nccc(-c5cccnc5)n4)c3)cc(C(F)(F)F)c2)cn1` [Nilotinib]: the Vd was 3.0 L/kg.

Take `CC12CC3CC(C)(C1)CC(N)(C3)C2` [Memantine]: the Vd is 10.9 L/kg.

In the case of `CN(C)CCCN1c2ccccc2Sc2ccc(Cl)cc21` [Chlorpromazine], the Vd is 21 L/kg.

In the case of `O=C1CC2(CCCC2)CC(=O)N1CCCCN1CCN(c2ncccn2)CC1` [Buspirone], the Vd was 5.3 L/kg.

Regarding `CCCCCOC(=O)Nc1nc(=O)n([C@@H]2O[C@H](C)[C@@H](O)[C@H]2O)cc1F` [Capecitabine], the Vd is 27.27 L/kg.

With `C[C@@H](NCCCc1cccc(C(F)(F)F)c1)c1cccc2ccccc12` [Cinacalcet], the Vd was 17.6 L/kg.

Turning to `O=C(O[C@H]1CN2CCC1CC2)N1CCc2ccccc2[C@@H]1c1ccccc1` [Solifenacin], the volume of distribution (Vd) is 671 L/kg.

For `O=C(CCCN1CCC(O)(c2ccc(Cl)cc2)CC1)c1ccc(F)cc1` [Haloperidol], the Vd was 18 L/kg.

As to `CCN(CC)CCCC(C)Nc1ccnc2cc(Cl)ccc12` (stereo not drawn) [Chloroquine], the Vd is 196.5 L/kg.

For the compound `Fc1ccc([C@@H]2CCNC[C@H]2COc2ccc3c(c2)OCO3)cc1` [Paroxetine], the Vd is 17 L/kg.

As to `CC(CN1c2ccccc2Sc2ccccc21)N(C)C` (stereo not drawn) [Promethazine], the Vd is 13.4 L/kg.

Take `CCN(CCO)CCCC(C)Nc1ccnc2cc(Cl)ccc12` (stereo not drawn) [Hydroxychloroquine]: the Vd is 525 L/kg.

Regarding `Nc1nc(N)c2nc(-c3ccccc3)c(N)nc2n1` [Triameterene], the Vd was 13.4 L/kg.

Turning to `CC1=C(/C=C/C(C)=C/C=C/C(C)=C\C(=O)O)C(C)(C)CCC1` [Isotretinoin], the distribution volume (Vd) was 5 L/kg.

As to `CCC1=C[C@@H]2CN(C1)Cc1c([nH]c3ccccc13)[C@@](C(=O)OC)(c1cc3c(cc1OC)N(C)[C@H]1[C@@](O)(C(=O)OC)[C@H](OC(C)=O)[C@]4(CC)C=CCN5CC[C@]31[C@@H]54)C2` [Vinorelbine], the Vd is 76 L/kg.

Turning to `COCCc1ccc(OCC(O)CNC(C)C)cc1` (stereo not drawn) [Metoprolol], the volume of distribution (Vd) is 4.2 L/kg.

`CN(C)c1cc(NC(=O)CNC(C)(C)C)c(O)c2c1C[C@H]1C[C@H]3[C@H](N(C)C)C(O)=C(C(N)=O)C(=O)[C@@]3(O)C(O)=C1C2=O` [Tigecycline]: the Vd was 7.2 L/kg.

As to `CNCCC=C1c2ccccc2CCc2ccccc21` [Nortriptyline], the Vd is 18 L/kg.

For `CCOC(=O)C1(c2ccccc2)CCN(C)CC1` [Meperidine], the Vd is 4.4 L/kg.

Turning to `O=C(c1ccc(OCCN2CCCCC2)cc1)c1c(-c2ccc(O)cc2)sc2cc(O)ccc12` [Raloxifene], the Vd was 2348 L/kg.

Take `CNCCC(Oc1ccc(C(F)(F)F)cc1)c1ccccc1` (stereo not drawn) [Fluoxetine]: the Vd is 35 L/kg.

On to Ivermectin, for which the Vd was 9.91 L/kg.

With `CCN(CC)CCNC(=O)c1cc(Cl)c(N)cc1OC` [Metoclopramide], the Vd is 3.4 L/kg.

Take `CC(C)NCC(O)COc1cccc2ccccc12` (stereo not drawn) [Propranolol]: the Vd is 4.3 L/kg.

Regarding `c1cnc2cc3c(cc2n1)[C@@H]1CNC[C@H]3C1` [Varenicline], the Vd is 6.2 L/kg.

`CCCCCN(C)CCC(O)(P(=O)(O)O)P(=O)(O)O` [Ibandronate]: the volume of distribution (Vd) was 5.8 L/kg.

As for `CCCN[C@H]1CCc2nc(N)sc2C1` [Pramipexole], the Vd is 7.3 L/kg.

As to `COc1cc2nc(N(C)CCCNC(=O)C3CCCO3)nc(N)c2cc1OC` (stereo not drawn) [Alfuzosin], the Vd is 3.2 L/kg.

For `CC(NC(C)(C)C)C(=O)c1cccc(Cl)c1` (stereo not drawn) [Bupropion], the Vd was 18.6 L/kg.
